# Experimental data: patent publication US8673938B2, “Chemical compounds” (priority 2006, dated 2014)
# Molecular target: T1, human 11βHSD1 enzyme (Homo sapiens (Human), UniProt P28845)
# Assay: biochemical
# Conditions: read-out: % inhibition of human 11-βHSD
# T1 sequence (P28845 whole entry): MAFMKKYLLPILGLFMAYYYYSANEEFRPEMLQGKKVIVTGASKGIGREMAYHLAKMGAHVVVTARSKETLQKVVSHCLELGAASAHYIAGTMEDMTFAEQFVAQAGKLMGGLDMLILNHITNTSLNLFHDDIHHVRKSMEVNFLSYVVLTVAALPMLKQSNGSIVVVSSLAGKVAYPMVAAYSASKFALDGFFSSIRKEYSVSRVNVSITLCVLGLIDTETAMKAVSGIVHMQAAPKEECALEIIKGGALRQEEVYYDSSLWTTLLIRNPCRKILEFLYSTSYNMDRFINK
row,SMILES,inhibition at 30 µM [%]
1,"O=C(O)CO[C@@H]1CCN(c2ccc(C(=O)NC3C4CC5CC(C4)CC3C5)c(SC3CCCCC3)n2)C1 (stereo partly drawn) [Example 72, 2-[(3R)-1-[5-(2-adamantylcarbamoyl)-6-cyclohexylsulfanyl-pyridin-2-yl]pyrrolidin-3-yl]oxyacetic acid]",84
2,CCCSc1nc(N2CCC(C(=O)O)C(C)C2)ccc1C(=O)NC1CCCCC1 (centres unmarked) [Example 36],89
3,"O=C(N[C@H]1C2CC3CC1C[C@](O)(C3)C2)c1ccc(N2CC[C@@H](C(=O)O)C2)nc1SC1CCCCC1 [Example 102, (3R)-1-[6-cyclohexylsulfanyl-5-[((2r,5s)-5-hydroxy-2-adamantyl)carbamoyl]pyridin-2-yl]pyrrolidine-3-carboxylic acid]",89
4,"O=C(O)C[C@@H]1CCCN(c2ccc(C(=O)NC3CCCCC3)c(SCCc3cnccn3)n2)C1 [compound 132, 2-[(3S)-1-[5-(cyclohexyl-carbamoyl)-6-(2-pyrazin-2-ylethylsulfanyl)pyridin-2-yl]-3-piperidyl] acetic acid]",98
5,"CCCSc1nc(N2CCC[C@@H](CC(=O)O)C2)ccc1C(=O)N[C@H]1C2CC3CC1C[C@@](S(C)(=O)=O)(C3)C2 [Example 126b, 2-[(3S)-1-[5-[((2r,5s)-5-methylsulfonyl-2-adamantyl)carbamoyl]-6-propylsulfanyl-pyridin-2-yl]-3-piperidyl]acetic acid]",99
6,"CCCSc1nc(N2CCC(C(=O)O)C2)ccc1C(=O)N[C@H]1C2CC3CC1C[C@@](O)(C3)C2 (some centres unmarked) [Example 89, 1-[5-[[(2r,5s)-5-hydroxy-2-adamantyl]carbamoyl]-6-propylsulfanyl-pyridin-2-yl]pyrrolidine-3-carboxylic acid]",85
7,"CCCSc1nc(NCC2CCC(C(=O)O)CC2)ccc1C(=O)N[C@H]1C2CC3CC1C[C@](O)(C3)C2 (some centres unmarked) [Example 80, 4-[[[5-[((2r,5s)-5-hydroxy-2-adamantyl)carbamoyl]-6-propylsulfanyl-pyridin-2-yl]amino]methyl]cyclohexane-1-carboxylic acid]",94
8,"O=C(O)C[C@@H]1CCCN(c2ccc(C(=O)NC3CCCCC3)c(N3CCN(C(=O)OCc4ccccc4)CC3)n2)C1 [compound 150, 2-[(3S)-1-[5-(cyclohexylcarbamoyl)-6-(4-phenylmethoxy-carbonylpiperazin-1-yl)pyridin-2-yl]-3-piperidyl]acetic acid]",74

# Molecular target: T1, human 11βHSD1 enzyme
# Assay: not given
# Conditions: repeat assays
row,SMILES,50% inhibition of the enzyme achieved
1,O=C(O)C[C@@H]1CCCN(c2ccc(C(=O)NC3C4CC5CC(C4)CC3C5)cn2)C1 (stereo partly drawn) [2-[(3S)-1-[5-(2-adamantylcarbamoyl)pyridin-2-yl]-3-piperidyl]acetic acid],"achieved 50% inhibition in one assay, but in a subsequent 3 assays did not"

# Same assay, conditions: test concentration of 30 μM of compound
row,SMILES,% inhibition of human 11-βHSD [%]
1,O=C(O)C[C@@H]1CCCN(c2ccc(C(=O)N[C@H]3C4CC5CC3C[C@@](O)(C5)C4)c(C3CC3)n2)C1 [compound 167],95
2,O=C(O)C[C@@H]1CCCN(c2ccc(C(=O)NC3CCCCC3)c(N3CCCC3)n2)C1 [compound 155],94
3,O=C(O)C[C@@H]1CCCN(c2ccc(C(=O)NC3CCCCC3)c(N3CCOCC3)n2)C1 [compound 156],78
4,O=C(O)C[C@@H]1CCCN(c2ccc(C(=O)NC3CCCCC3)c(C3CC3)n2)C1 [compound 165],95
5,O=C(O)C[C@@H]1CCCN(c2ccc(C(=O)N[C@H]3C4CC5CC3C[C@@](O)(C5)C4)c(SCc3ccccc3)n2)C1 [compound 107],90
6,O=C(O)C[C@@H]1CCCN(c2ccc(C(=O)NC3CCCCC3)cn2)C1 [compound 133],58
7,Cc1nc(N2CCC[C@@H](CC(=O)O)C2)ccc1C(=O)NC1CCCCC1 [compound 159],55
8,Cc1nc(N2CCC[C@@H](CC(=O)O)C2)ccc1C(=O)NC1C2CC3CC(C2)CC1C3 (some centres unmarked) [compound 161],84
